Results: patent US7825092B2, “Dendroaspis natriuretic peptide for treatment of cancer” (University of South Florida, priority 2006, dated 2010)

How the values were obtained:
[1] = human or animal subjects; cited from earlier work
human glioblastoma cells = assay: DNA synthesis by bromodeoxyuridine (BrdU) incorporation; assay type: cell-based; details: 1 μM, 24 hours
Protocol: To investigate whether these peptide hormones were inhibiting DNA synthesis, bromodeoxyuridine (BrdU) incorporation into the human glioblastoma cells was utilized as previously described from our laboratory. BrdU was from BD Bioscience, San Jose, Calif. After 24 hours in culture with 1 μM of LANP, vessel dilator, kaliuretic peptide, ANP, and DNP, respectively, or with no peptide hormone (i.e., control), BrdU in a final concentration of 10 μM in the cell culture medium was added for 45 minutes, which is the time in which the cells are in the logarithmic phase of cell proliferation.
(§1) The data obtained in this investigation are illustrated as mean±SEM. Maximum changes in cell death (evaluated six times with ten areas of microscope slide evaluated each time) and DNA synthesis within groups were determined by a paired one-tailed Student's t test evaluated with statistical module of Excel software. To be considered statistically significant, we required a probability value to be <0.05 (95% confidence limits).

[2] = test system: human glioblastoma cells (ATCC number CRL-11543); assay: number of human glioblastoma cells counted after incubation with peptide hormones; assay type: cell-based; details: for decrease in number of human glioblastoma cells compared to control: at 96 hours (three days after 24 hours exposure); for number of glioblastoma cancer cells remaining (per field): 24 hours, mean±SEM, control 130±3 cells
Protocol: A cell line (ATCC number CRL-11543) of human glioblastoma cells were purchased from American Type Culture Collection (ATCC, Manassas, Va.). This glioblastoma cell line was deposited by the Ludwig Institute for Cancer Research, University of California at San Diego, La Jolla, Calif. This glioblastoma cell line produces angiogensis inhibiting factor.
Propagation of these human glioblastoma cells was in Dulbecco's modified Eagle's medium with 4 mM L-glutamine adjusted to contain 1.5 g/L sodium bicarconate and 4.5 g/L glucose supplemented with 1 μg/ml tetracycline, […], and 10% fetal bovine serum (Atlanta Biologicals, Lawrenceville, Ga.) at a temperature of 37° C. in a […] environment as recommended by the ATCC. Cells were dispensed in new flasks with subculturing two to three times per week.
After the glioblastoma cells were subcultured for 24 hours they were then seeded to coverslips in 24-well plates (Nunclon™, Roskilde, Denmark) with 1 mL of the above media. There were 65,000 cells seeded to each coverslip. After 24 hours, the well plates were washed twice with phosphate-buffered saline to remove the fetal bovine serum. Removal of serum was carried out to completely remove all variables (EGF, etc.) present in serum in order that interpretation of any data obtained would be straightforward. After 24 hours of serum deprivation, media volume was reduced to 250 μL per well with, or without, the respective peptide hormones in dose-response curves with concentrations up to and including 100 μM (1% of this volume). Human glioblastoma cells were then incubated for various periods of time (24, 48, 72, and 96 hours). The number of glioblastoma carcinoma cells were then counted with a cell counter (Thomas Scientific, Swedesboro, N.J.) evaluating ten fields of the microscope slide at ×40 along the X-axis with an Olympus BH-2 microscope (Atlanta, Ga.). This evaluation was repeated on six separate occasions with the number of human glioblastoma cells reflecting 60 observations for each group, i.e., 60 observations for controls and 60 observations for each of the five groups with respective peptide hormones. The peptide hormones used in this investigation were from Phoenix Pharmaceuticals, Inc., Belmont, Calif. In the Results section, the number of cancer cells reported is the number of cells in each individual field. Ten fields were examined on each microscope slide. The results of the ten fields were pooled and the average of the ten fields is illustrated in the Results section.
as §1

[3] = test system: human pancreatic adenocarcinoma cells; details: 1 μM; cited from earlier work
[4] = test system: small-cell lung cancer cells; details: 1 μM; cited from earlier work
[5] = test system: human prostate cancer cells; details: cited from earlier work
human colon cancer cells = details: within 24 hours; cited from earlier work
[6] = test system: human pancreatic adenocarcinomas; details: in one week, athymic mice; cited from earlier work
[7] = 1 μM, at 48 hours (24 hours exposure only)
[8] = 1 μM, at 72 hours (24 hours exposure only)
[9] = 10 μM, at 48 hours (24 hours exposure only)
[10] = 10 μM, at 72 hours (24 hours exposure only)
[11] = 100 μM, at 48 hours (24 hours exposure only)
[12] = 100 μM, at 72 hours (24 hours exposure only)

Compound	side effect hypotension [1]	decrease in DNA synthesis (human glioblastoma cells) [%]	decrease in number of human glioblastoma cells compared to control ([2]; 1 μM) [%]	decrease in number of human glioblastoma cells compared to control ([2]; 10 μM) [%]	decrease in number of human glioblastoma cells compared to control ([2]; 100 μM) [%]	decrease in number of human glioblastoma cells [2, 7] [%]	decrease in number of human glioblastoma cells [2, 8] [%]	decrease in number of human glioblastoma cells [2, 9] [%]	decrease in number of human glioblastoma cells [2, 10] [%]	decrease in number of human glioblastoma cells ([2]; 100 μM, at 24 hours) [%]	decrease in number of human glioblastoma cells [2, 11] [%]	decrease in number of human glioblastoma cells [2, 12] [%]	decrease in number of human glioblastoma cells ([2]; 1 μM, at 24 hours) [%]	decrease in number of human glioblastoma cells ([2]; 10 μM, at 24 hours) [%]	number of glioblastoma cancer cells remaining (per field) ([2]; 100 μM) [cells]	also measured
CC[C@H](C)[C@@H]1NC(=O)[C@H](CCCNC(=N)N)NC(=O)[C@H](CC(=O)O)NC(=O)[C@H](CCSC)NC(=O)[C@H](CCCNC(=N)N)NC(=O)CNC(=O)CNC(=O)[C@H](Cc2ccccc2)NC(=O)[C@@H](NC(=O)[C@H](CO)NC(=O)[C@H](CO)NC(=O)[C@H](CCCNC(=N)N)NC(=O)[C@H](CCCNC(=N)N)NC(=O)[C@H](CC(C)C)NC(=O)[C@@H](N)CO)CSSC[C@@H](C(=O)N[C@@H](CC(N)=O)C(=O)N[C@@H](CO)C(=O)N[C@@H](Cc2ccccc2)C(=O)N[C@@H](CCCNC(=N)N)C(=O)N[C@@H](Cc2ccc(O)cc2)C(=O)O)NC(=O)CNC(=O)[C@H](CC(C)C)NC(=O)CNC(=O)[C@H](CO)NC(=O)[C@H](CCC(N)=O)NC(=O)[C@H](C)NC(=O)CNC1=O [ANP, atrial natriuretic peptide]	observed	79	24	43	60											
Dendroaspis natriuretic peptide [DNP]		23	1	5	8	1	1	7	6	17	19	19				concentration where first began to have an effect on glioblastoma cells [2]: 100 µM; difference in concentration with significant anticancer effects, DNP versus human cardiac hormones ([2]; DNP higher, human cardiac hormones lower): 100 fold; killing / elimination of human glioblastoma cells, up to ([2]; within 24 hours, maximum effect, concentration not given): up to 19%
brain natriuretic peptide [BNP, reference compound]		23														
kaliuretic peptide	never	77	25	40	64	32	32	51	52	68	68	68	33	51	43±2	decrease in human pancreatic adenocarcinoma cells [3]: 37%; decrease in small-cell lung cancer cells [4]: 30%; decrease in prostate adenocarcinoma cells ([5]; 1 μM): 30%; decrease in number of human glioblastoma cells ([2]; 1 μM, at 24 hours, listed as Kaliuretic peptide): 32%
long acting natriuretic peptide (NPMYNAVSNADLMDFKNLLDHLEEKMPLED; Long-acting natriuretic peptide; UniProt P01160 26-55, looked up, fragment) [LANP, cardiac hormone, first 30 amino acids of the 126 a.a. atrial natriuretic peptide prohormone]	never	65	24	39	61	31	31	50	50	65	65	66	31	49	43±2	
vessel dilator	never	87	43	55	68	53	53	60	60	75	76	76	53	60	33±2	decrease in number of human colon cancer cells, up to (human colon cancer cells): up to 97%; decrease in number of human prostate cancer cells, up to ([5]; within 24 hours): up to 97%; decrease in tumor volume [6]: 49%; lower concentration causing the same decrease as the other peptide hormones ([2]; within 24 hours, FIG. 2): 10 fold
